US20050197364A1, “Amide compounds as ion channel ligands and uses thereof” (priority 2003, published 2005)

Tests used:
VR1 receptor = target: T1, VR1 receptor (Rattus norvegicus, UniProt O35433); experiment: Whole-cell patch clamp electrophysiology, capsaicin induced current in DRG neurons; format: cell-based
T1 construct: Dorsal root ganglion (DRG) neurons were recovered from either neonatal or adult rats; endogenous in cells; host or cells: primary rat dorsal root ganglion neurons
Protocol: Dorsal root ganglion (DRG) neurons were recovered from either neonatal or adult rats and plated onto poly-D-lysine coated glass coverslips. The plated neurons were transferred into a chamber to allow drug solutions to be added to the cells using a computer-controlled solenoid-valve based perfusion system. The cells were imaged using standard DIC optics. Cells were patched using finely-pulled glass electrodes. Voltage-clamp electrophysiology experiments were carried out using an Axon Instruments Multiclamp amplified controlled by pCLAMP8 software.
The cells were placed into a whole-cell voltage clamp and help at a voltage of −80 mV while monitoring the membrane current in gap-free recording mode. 500 nM capsaicin was added for 30 seconds as a control. Test compounds at various concentrations at ranging from (10-1000 nM) were added to the cells for 1 minute prior to a 30 second capsaicin application. Differences between control experiments and drug positive capsaicin experiments were used to determine the efficacy of each test compound. All compounds that inhibited capsaicin induced current greater than 50% were considered positives.

[1] = test system: pawlick response induced by capsaicin; experiment: Paw lick assay (capsaicin challenge); format: in vivo; conditions: 30 mg/kg, at least 30 minutes prior to testing; FIG. 5
Protocol: This assay was performed to test the ability of Compound 18 to inhibit the response to capsaicin challenge.
Animals were acclimatized at least 2 days prior to testing by placing them in a behavioral chamber for one hour. On the day of testing, animals were trained for 30-60 minutes prior to dosing. Animals were dosed with 30 mg/kg of Compound 18 at least 30 minutes prior to testing and then placed in behavioral chambers for acclimatization. Animals were then placed into a falcon tube restrainer and injected with a 0.16 mg/ml capsaicin solution (or vehicle) into the plantar surface of their paw. Animals were then returned to the behavior chamber and monitored for paw licking behavior (including paw and leg licking behavior) over the next 5 minute interval.

[2] = Pharmacokinetic profile after intravenous and oral administration; format: in vivo; conditions: male, Sprague-Dawley, rat, plasma, rats, IV 1 mg/kg and oral 5 mg/kg
Protocol: The pharmacokinetic profile of Compound 18 was evaluated following intravenous and oral administration in rats. Sprague-Dawley male rats obtained from Charles River, San Diego, Calif. were acclimated for 24 hours. Compound 18 was formulated at a concentration of 0.5 mg/mL for IV administration at a 1 mg/kg dose and 1 mg/mL for oral administration at a 5 mg/kg dose. All animals were weighed before dosing. The body weight was used to calculate the actual dose for each animal. The intravenous dose was administered through the jugular vein catheter in less than 1 minute. The oral dose volume was 1.5 ml for all PO rats administered through oral […]. […] For PO dosing, blood samples were collected using a pre-heparinized syringe via the carotid artery catheter before dosing and at t=5, 15, 30, 60, 120, 180, 360, and 480 minutes post dosing. 250 uL of blood was obtained at each time point from each animal. Equal volumes of 0.9% normal saline were replaced to prevent dehydration. The whole blood samples were maintained on ice until centrifugation. Blood samples were centrifuged at 14,000 rpm for 10 minutes at 4° C., and the upper plasma layer was transferred into a clean vial and store at −80° C. The plasma was analyzed.

[3] = Aqueous equilibrium solubility; format: physicochemical; conditions: room temperature
Protocol: Equilibrium solubility was measured in a pH 2.0 isotonic solution of NaCl/HCl and a pH 7.4 aqueous buffer. The pH 2.0 solution was prepared by adjusting the saline solution to a pH of 2.0 using HCl. The pH 7.4 buffer was prepared by adjusting the pH of a 0.07 M solution of NaH2PO4 to pH 7.4 with 10 N NaOH. […] At least 1 mg of powder was combined with 1 ml of buffer to make ≧1 mg/ml mixture. This sample was shaken for ≧2 hours and left to stand overnight at room temperature. The samples were then filtered through a 0.45-μm Nylon syringe filter that was first saturated with the sample. The filtrate was sampled twice, consecutively. All samples were assayed by LC/MS using electrospray ionization. The typical range of the assay is greater than 1 mg/mL to less than 0.0002 mg/mL, depending on analytical sensitivity.

CYP2C19 = CYP2C19 (Homo sapiens, UniProt P33261); experiment: Cytochrome p450 inhibition assessment, CYP2C19; format: in vitro ADME; conditions: estimated
Protocol: The ability of test compounds to inhibit five major human cytochrome p450 isozymes was evaluated. Cytochrome p450 inhibition assays were performed on 96-well microtiter assay plates according to the protocols described in Gentest P450 inhibition instruction manuals. The assays were performed in duplicate at 8 concentrations with the upper concentration of 100 μM followed by a 1:3 serial dilution. Reactions were initiated by the addition of 100 μL of enzyme/substrate mix to 100 μL of cofactor/serial dilution mix, and terminated by addition of 75 μL of a 4:1 acentonitrile: 0.5 M Tris base solution or by 2N NaOH for CYP3A4/DBF. Fluorescence was measured using a fluorescence plate reader (FLUOstar model 403, BMG Lab Technologies, Durham, N.C.). For reactions with inhibition greater than 50%, IC50 values were determined by fitting the data to the Hill equation using software GraphPad Prism (Version 4.02, GraphPad Software, San Diego, Calif.).

T1 sequence (O35433 whole entry): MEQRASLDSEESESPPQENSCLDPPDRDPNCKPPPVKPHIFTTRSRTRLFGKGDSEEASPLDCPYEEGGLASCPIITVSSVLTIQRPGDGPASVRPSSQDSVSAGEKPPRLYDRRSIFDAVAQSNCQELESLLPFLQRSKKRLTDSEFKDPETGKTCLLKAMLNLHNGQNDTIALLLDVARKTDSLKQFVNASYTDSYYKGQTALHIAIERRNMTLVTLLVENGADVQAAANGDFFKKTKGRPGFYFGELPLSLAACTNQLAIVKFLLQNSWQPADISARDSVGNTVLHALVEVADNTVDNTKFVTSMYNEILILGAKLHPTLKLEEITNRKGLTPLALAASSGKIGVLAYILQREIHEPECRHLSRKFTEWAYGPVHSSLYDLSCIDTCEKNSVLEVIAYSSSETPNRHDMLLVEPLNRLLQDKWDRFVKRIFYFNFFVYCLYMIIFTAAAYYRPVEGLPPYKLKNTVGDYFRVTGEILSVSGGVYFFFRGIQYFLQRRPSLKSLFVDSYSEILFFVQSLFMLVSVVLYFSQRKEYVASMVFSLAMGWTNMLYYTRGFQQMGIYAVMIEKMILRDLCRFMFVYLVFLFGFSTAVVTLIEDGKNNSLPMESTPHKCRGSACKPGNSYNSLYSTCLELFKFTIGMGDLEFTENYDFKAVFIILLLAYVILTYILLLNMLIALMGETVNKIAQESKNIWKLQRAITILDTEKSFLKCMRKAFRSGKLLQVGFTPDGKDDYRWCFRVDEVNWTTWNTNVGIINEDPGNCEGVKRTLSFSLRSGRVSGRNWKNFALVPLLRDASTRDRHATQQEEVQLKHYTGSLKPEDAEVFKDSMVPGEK
Chain of CYP2C19 (P33261 whole entry): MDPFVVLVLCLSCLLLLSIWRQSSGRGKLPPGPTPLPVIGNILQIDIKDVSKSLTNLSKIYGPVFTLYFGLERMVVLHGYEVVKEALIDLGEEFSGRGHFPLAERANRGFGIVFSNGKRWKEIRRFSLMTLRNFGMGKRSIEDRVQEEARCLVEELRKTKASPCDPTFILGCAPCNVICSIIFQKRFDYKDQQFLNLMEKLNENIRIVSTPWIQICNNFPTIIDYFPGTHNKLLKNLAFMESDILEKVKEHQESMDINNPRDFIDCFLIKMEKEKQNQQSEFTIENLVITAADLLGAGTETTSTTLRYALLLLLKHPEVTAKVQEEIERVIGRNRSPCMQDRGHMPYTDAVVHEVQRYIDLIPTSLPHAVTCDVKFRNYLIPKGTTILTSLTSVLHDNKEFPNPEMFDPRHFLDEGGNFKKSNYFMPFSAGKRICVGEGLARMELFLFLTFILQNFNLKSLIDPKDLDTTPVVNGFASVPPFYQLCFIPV

O=C(Nc1ccc(C(F)(F)F)cc1)c1ccc(-c2ncccc2Cl)cc1 [Compound 18, 4-(3-Chloropyridin-2-yl)-N-(4-trifluoromethyl-phenyl)benzamide]
dose response of inhibiting a capsaicin induced calcium ion influx (FIG. 3) (VR1 receptor; 50 nM, 100 nM and 250 nM): increasing effectiveness
inhibition at 0.1 µM (VR1 receptor; DRG neuron, 100 nM compound, treatment time 20 seconds, 500 nM capsaicin, rat DRG neurons, -80 mV): < 75%
pawlick response induced by treatment with capsaicin [1]: significantly inhibited
Cmax [2]: 1750 nM
Tmax [2]: 3 h
clearance ([2]; read-out: Clearance (Cl) (converted)): 8.83 mL/min/kg
bioavailability ([2]; read-out: Oral Bioavailability (%F)): 30.1%
Vd ([2]; read-out: Volume of distribution (Vd)): 2.82 L/kg
half-life ([2]; read-out: half life (t1/2) (converted)): 3.71 h
solubility thermodynamic ([3]; pH 2.0 isotonic NaCl/HCl solution, simulated gastric fluid, thermodynamic from solid, pH 2.0 isotonic NaCl/HCl): < 0.2 µg/mL
equilibrium solubility ([3]; pH 7.4 aqueous buffer): low solubility
IC50 (CYP2C19): 26.9 µM
